Reference: US20230147993A1, “THIOPHENE COMPOUNDS WITH CYCLIC AMIDES, AND USES THEREOF” (Capulus Therapeutics, LLC, priority 2019, published 2023)

Columns and labels:
SREBP = experiment: Reporter Screening Assay (SRE-luciferase reporter, HepG2); format: cell-based; conditions: Homo sapiens, SREBPv1 Reporter cell line HepG2, 24 hours, 0.01 uM to 10 uM, read-out: I: Reporter Screening Assay (Ave EC50 (nM))
Method: Reporter Screening Assay: This assay was used to evaluate the effect on transcriptional activity SREBP of selected compounds using an SRE-luciferase reporter construct. On day 1, 10,000 cells were seeded in a 96 well (white) plate as per the plate map in Growth media without antibiotics. Cells were incubated at 37° C. for 8 hours. After 8 hours, cells were washed with DPBS for complete removal of FBS. DPBS was completely removed and Growth media was replaced with phenol free treatment medium (90 μl) with different FBS concentrations. The cells were then incubated at 37° C. for 24 hours with varying doses (0.01 uM to 10 uM) of compounds. Then a Luciferase assay was performed.
Reagents for performing Luciferase assay were stored at −20° C. To a tube of lyophilized assay substrate was added 1 mL Substrate Solvent and mixed well. The Substrate tube after reconstitution was covered with aluminum foil so as to keep it protected from light. The assay buffer was thawed to room temperature. To 20 mL Assay Buffer was added 200 µL of reconstituted 100× Substrate and mixed well. The reconstituted substrate as well as the assay solution (buffer + substrate) was protected from light throughout the procedure by keeping it covered with aluminum foil. Using a multi-channel pipette, 100 μL Assay Solution (buffer + substrate) was added directly to each sample well in Plate 1, which was incubated for 30 min (plate was covered with aluminum foil). After 30 min incubation, the plate was read for total luminescence. Each well was read for 2 seconds in a plate luminometer. (Microplate reader Envision Microplate reader from Perkin Elmer). Precaution was taken to incubate plate exactly for 30 min prior to reading on the plate reader.
Reporter Assay Materials: SREBPv1 Reporter cell line: HepG2-#32251. Growth Medium: MEM (Corning 10-010), 10% FBS, 1% GlutaMax (Invitrogen Catalog #35050061), […] (Invitrogen Catalog #A1113803) and 1% Penicillin-Streptomycin (Pen-Strep). Treatment Media: Phenol-free MEM (Invitrogen Catalog #51200-038) and 1% GlutaMax (Invitrogen Catalog #35050061). Luciferase Assay: LightSwitch Luciferase Assay Kit (Catalog #32032). LDH assay: Pierce LDH Cytotoxicity Assay Kit (Catalog #SD249616).

[1] = Stability in mouse liver microsomes; format: in vitro ADME
Method: (§1) Half-life Human Microsomes: Compounds were evaluated for stability in human liver microsomes. A 10 mM stock solution of the compound being evaluated was prepared in DMSO and diluted with water:acetonitrile (1:1) to a concentration of 1 mM. A working concentration of 100 μM was prepared by further dilution with water:acetonitrile (1:1). To make the preincubation mixture, 2.5 μL of the diluted compound was combined with 75 μL of human liver microsomes at 3.33 mg/mL, and 85 μL of 100 mM potassium phosphate buffer, and this mixture was pre-incubated for 10 min at 37° C. To make the 60 minute mixture without cofactor, 32.5 μL of the preincubation mixture was combined with 17.5 μL of 100 mM potassium phosphate buffer and incubated for 60 min at 37° C. To make the 0 min sample with cofactor (NADPH), 16.25 μL of the preincubation mixture was combined with 200 μL of acetonitrile containing internal standard and 8.75 μL of cofactor (NADPH). To make the incubation mixture, 62 μL of cofactor (2.85 mM) was combined with the remaining incubation mixture, and incubated for 60 min at 37° C. To prepare the sample mixture to be evaluated, 25 μL incubation mixture was combined with 200 μL of acetonitrile containing internal standard and vortexed for 5 min at 1200 rpm, then centrifuged for 10 min at 4000 rpm. The supernatant was diluted 2 fold with water and injected on LC-MS/MS. The sample mixture was evaluated by LC-MS/MS using 10 mM ammonium acetate with 0.1% FA as the aqueous mobile phase, and methanol as the organic mobile phase.
Half-life Mouse Microsomes: Compounds were evaluated in mouse liver microsomes following a similar procedure as described above for human liver microsomes. A similar procedure could be used to evaluate compounds in rat liver microsomes.

ACACA = experiment: Gene expression in HepG2 cells (qPCR), ACACA; format: cell-based; conditions: for 48 hours, normalized to β-Actin, relative to mock or vehicle treated cells (ΔΔCT)
Method: Gene Expression: The effect of selected compounds on the gene expression of HepG2 cells was evaluated. HepG2 cells (P2) were seeded in 24 well plate (80,000 cells/well) for RNA extraction and in a 96 well plate (10,000 cells/well) for Cell Titer Glow (CTG). The media used was DMEM and contained 10% FBS. Each compound was evaluated at […] for 48 hours. Two biological replicates per experimental group were evaluated for RNA. For gene analysis, RNA was harvested with RNEasy kit and 20-100 ng used to synthesize cDNA with random primers. Quantitative PCR was performed on 1 pg to 100 ng cDNA for the following genes: ACACA, ACLY, FASN, LSS, PNPLA3. Gene expression levels were normalized with housekeeping gene, β-Actin, and relative expression levels determined using ΔΔCT method comparing treated to mock or vehicle treated cells as a baseline. “Total” gene expression refers to the average of the values of the 5 genes listed above.

[2] = Stability in human liver microsomes; format: in vitro ADME; conditions: 60 min at 37° C., NADPH
Method: as §1

| Structure (SMILES) | EC50 (SREBP) [nM] | percent remaining after 60 min in mouse liver microsomes [1] | percent remaining after 60 min in human liver microsomes [2] | A: ACACA, effect of compounds on gene expression of HepG2 cells (ACACA) |
| --- | --- | --- | --- | --- |
| O=C(c1ccc(-c2cc(-c3ccnc(C4(O)CCC4)c3)cs2)c(Cl)c1)N1CCC(O)CC1 [Compound I-1629076, (3-chloro-4-(4-(2-(1-hydroxycyclobutyl)pyridin-4-yl)thiophen-2-yl)phenyl)(4-hydroxypiperidin-1-yl)methanone] | < 249 | +++ (≥60.1 = +++) | +++ (≥60.1 = +++) | ++ (0.31-0.7509 = ++) |
| O=C(c1ccc(-c2cc(-c3ccnc(OC4CC4)c3)cs2)c(Cl)c1)N1CCC(O)CC1 [Compound I-1629059, (3-chloro-4-(4-(2-cyclopropoxypyridin-4-yl)thiophen-2-yl)phenyl)(4-hydroxypiperidin-1-yl)methanone] | < 249 | +++ (≥60.1 = +++) | +++ (≥60.1 = +++) | ++ (0.31-0.7509 = ++) |
| O=C(c1ccc(-c2cc(-c3ccnc(C4CCOCC4)c3)cs2)c(Cl)c1)N1CCC(O)CC1 [Compound I-1628752, (3-chloro-4-(4-(2-(tetrahydro-2H-pyran-4-yl)pyridin-4-yl)thiophen-2-yl)phenyl)(4-hydroxypiperidin-1-yl)methanone] | > 500 | +++ (≥60.1 = +++) | + (0-30 = +) | + (>0.751 = +) |
| O=C(c1ccc(-c2cc(-c3ccnc(C4(O)COC4)c3)cs2)c(Cl)c1)N1CCC(O)CC1 [Compound I-1629083, (3-chloro-4-(4-(2-(3-hydroxyoxetan-3-yl)pyridin-4-yl)thiophen-2-yl)phenyl)(4-hydroxypiperidin-1-yl)methanone] | 250 to 500 | +++ (≥60.1 = +++) | +++ (≥60.1 = +++) | + (>0.751 = +) |
| O=C(c1ccc(-c2cc(-c3ccnc(C4(CO)CC4)c3)cs2)c(Cl)c1)N1CCC(O)CC1 [Compound I-1628961, (3-chloro-4-(4-(2-(1-(hydroxymethyl)cyclopropyl)pyridin-4-yl)thiophen-2-yl)phenyl)(4-hydroxypiperidin-1-yl)methanone] | < 249 | +++ (≥60.1 = +++) | +++ (≥60.1 = +++) | ++ (0.31-0.7509 = ++) |
| CC1(O)CCN(C(=O)c2ccc(-c3cc(-c4ccnc(C5(CO)CC5)c4)cs3)c(Cl)c2)CC1 [Compound I-1629069, (3-chloro-4-(4-(2-(l-(hydroxymethyl)cyclopropyl)pyridin-4-yl)thiophen-2-yl)phenyl)(4-hydroxy-4-methylpiperidin-1-yl)methanone] | > 500 | + (0-30 = +) | + (0-30 = +) | + (>0.751 = +) |

Further lines, with some results ahead:

| EC50 (SREBP) [nM] | percent remaining after 60 min in mouse liver microsomes [1] | percent remaining after 60 min in human liver microsomes [2] | Structure (SMILES) | A: ACACA, effect of compounds on gene expression of HepG2 cells (ACACA) |
| --- | --- | --- | --- | --- |
| < 249 | ++ (30.1-60 = ++) | ++ (30.1-60 = ++) | O=C(c1ccc(-c2cc(-c3ccnc4c3OCCO4)cs2)c(Cl)c1)N1CCC(O)CC1 [Compound I-1629066, (3-chloro-4-(4-(2,3-dihydro-[1,4]dioxino[2,3-b]pyridin-8-yl)thiophen-2-yl)phenyl)(4-hydroxypiperidin-1-yl)methanone] | ++ (0.31-0.7509 = ++) |
| < 249 | ++ (30.1-60 = ++) | + (0-30 = +) | O=C(c1ccc(-c2cc(-c3ccnc4c3NCCO4)cs2)c(Cl)c1)N1CCC(O)CC1 [Compound I-1629084, (3-chloro-4-(4-(2,3-dihydro-1H-pyrido[2,3-b][l,4]oxazin-8-yl)thiophen-2-yl)phenyl)(4-hydroxypiperidin-1-yl)methanone] | ++ (0.31-0.7509 = ++) |
| < 249 | + (0-30 = +) | + (0-30 = +) | O=C(c1ccc(-c2cc(-c3ccnc4c3OCCN4)cs2)c(Cl)c1)N1CCC(O)CC1 [Compound I-1629067, (3-chloro-4-(4-(3,4-dihydro-2H-pyrido[3,2-b][1,4]oxazin-8-yl)thiophen-2-yl)phenyl)(4-hydroxypiperidin-1-yl)methanone] | ++ (0.31-0.7509 = ++) |
| < 249 | + (0-30 = +) | ++ (30.1-60 = ++) | O=C(c1ccc(-c2cc(-c3ccnc4c3NCCN4)cs2)c(Cl)c1)N1CCC(O)CC1 [Compound I-1629068, (3-chloro-4-(4-(l,2,3,4-tetrahydropyrido[2,3-b]pyrazin-8-yl)thiophen-2-yl)phenyl)(4-hydroxypiperidin-1-yl)methanone] | ++ (0.31-0.7509 = ++) |
